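Step 1: Grow cells in 96-well plates. Step 2: Expose to compound for 48 hours at 5 concentrations. Step 3: Interpolate endpoints linearly; if unreached, use highest concentration. TGI: total growth inhibition.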
Experiments:
Experiment in all cases: NCI tumour cell line growth inhibition, 48 h
NCI-H522 lung = tested on: NCI-H522 lung
HL-60(TB) leukemia = tested on: HL-60(TB) leukemia
SF-295 CNS = tested on: SF-295 CNS
MALME-3M melanoma = tested on: MALME-3M melanoma
LOX IMVI melanoma = tested on: LOX IMVI melanoma
MOLT-4 leukemia = tested on: MOLT-4 leukemia
SK-MEL-2 melanoma = tested on: SK-MEL-2 melanoma
NCI/ADR-RES ovarian = tested on: NCI/ADR-RES ovarian
COLO 205 colon = tested on: COLO 205 colon
HS 578T breast = tested on: HS 578T breast
MCF7 breast = tested on: MCF7 breast
MDA-MB-231 breast = tested on: MDA-MB-231 breast
PC-3 prostate = tested on: PC-3 prostate
A498 renal = tested on: A498 renal
SF-268 CNS = tested on: SF-268 CNS
M19-MEL melanoma = tested on: M19-MEL melanoma
KM20L2 colon = tested on: KM20L2 colon
HCT-116 colon = tested on: HCT-116 colon
UO-31 renal = tested on: UO-31 renal
M14 melanoma = tested on: M14 melanoma

SMILES | TGI (NCI-H522 lung) | TGI (HL-60(TB) leukemia) | TGI (SF-295 CNS) | TGI (MALME-3M melanoma) | TGI (LOX IMVI melanoma) | TGI (MOLT-4 leukemia) | TGI (SK-MEL-2 melanoma) | TGI (NCI/ADR-RES ovarian) | TGI (COLO 205 colon) | TGI (HS 578T breast) | TGI (MCF7 breast) | TGI (MDA-MB-231 breast) | TGI (PC-3 prostate) | TGI (A498 renal) | TGI (SF-268 CNS) | TGI (M19-MEL melanoma) | TGI (KM20L2 colon) | TGI (HCT-116 colon) | TGI (UO-31 renal) | TGI (M14 melanoma)
N=c1c2c(=S)n(-c3ccccc3)c(=S)n(-c3ccccc3)c2nc(SCCCN2CCN(c3cccc(Cl)c3)CC2)n1-c1ccccc1 | > 100 µM | > 100 µM | > 100 µM | > 100 µM | > 100 µM | > 100 µM | > 100 µM | > 100 µM | > 100 µM | > 100 µM | > 100 µM | 70.9 µM | > 100 µM | > 100 µM |  |  |  |  |  | 
CCCCCCCC/C=C\CCCCCCCC(=O)O | 210 µM | 290 µM | 176 µM | > 500 µM | 239 µM | 331 µM | > 281 µM | 196 µM | > 500 µM |  | 215 µM |  |  | > 500 µM | 192 µM | 183 µM | > 500 µM | 217 µM | 241 µM | 
CCNc1nnc(-c2nsc3ccccc23)s1 |  | > 100 µM |  |  | > 100 µM | > 100 µM | > 100 µM |  | > 100 µM |  |  |  |  |  | 80.9 µM | > 100 µM | > 100 µM | 75.2 µM | > 100 µM | > 100 µM
O=C1C=CC2=[N+]([O-])C(c3ccccc3)(c3ccccc3)C(=Nc3ccccc3)C2=C1 | 3.02 µM |  | 27.7 µM | 4.2 µM | 3.74 µM |  | 40.7 µM |  |  |  |  |  |  |  | 11.4 µM | 3.36 µM | 5.22 µM | 3.92 µM | 5.33 µM | 3.76 µM
Cc1ccc([N+](=O)[O-])cc1S(=O)(=O)Nc1ccc(C2=NNC(c3ccccc3O)C2)cc1 (stereo not drawn) | > 100 µM | 61.8 µM | 90.9 µM | 96.3 µM | > 100 µM | 96.3 µM | 65.6 µM | 81 µM | 65.5 µM | > 100 µM | 64.7 µM | > 100 µM | > 100 µM | 79.3 µM | > 100 µM |  |  | 60.8 µM | 79.2 µM | 51.6 µM
CC(=O)Oc1ccc2c(c1)oc1c3ccc(OC(C)=O)cc3n(C)c(=O)c21 |  |  | > 100 µM | 31.1 µM |  | > 100 µM |  | 51.7 µM | > 100 µM | > 100 µM | > 100 µM | > 100 µM | > 100 µM |  | 78.2 µM |  |  | 48.7 µM | > 100 µM | > 100 µM
